Assay results from BindingDB's records for patent US12084442 (Novartis, 2024).

Target: T1, G protein-activated inward rectifier potassium channel 1/4 (Homo sapiens, UniProt P48544+P48549)
T1 sequence (P48549 whole entry): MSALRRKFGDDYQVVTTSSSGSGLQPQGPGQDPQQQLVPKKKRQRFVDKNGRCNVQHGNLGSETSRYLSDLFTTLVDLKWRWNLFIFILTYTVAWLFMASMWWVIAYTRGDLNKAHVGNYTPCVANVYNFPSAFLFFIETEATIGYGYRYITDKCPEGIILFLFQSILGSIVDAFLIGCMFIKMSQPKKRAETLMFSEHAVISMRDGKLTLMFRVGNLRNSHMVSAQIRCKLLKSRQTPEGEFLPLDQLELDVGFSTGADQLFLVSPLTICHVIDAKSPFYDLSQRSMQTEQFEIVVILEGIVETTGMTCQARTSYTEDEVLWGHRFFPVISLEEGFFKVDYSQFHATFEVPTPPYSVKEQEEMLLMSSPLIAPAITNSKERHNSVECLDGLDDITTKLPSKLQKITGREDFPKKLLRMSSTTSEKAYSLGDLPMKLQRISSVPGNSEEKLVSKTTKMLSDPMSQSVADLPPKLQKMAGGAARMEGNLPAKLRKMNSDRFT
T1 sequence (P48544 whole entry): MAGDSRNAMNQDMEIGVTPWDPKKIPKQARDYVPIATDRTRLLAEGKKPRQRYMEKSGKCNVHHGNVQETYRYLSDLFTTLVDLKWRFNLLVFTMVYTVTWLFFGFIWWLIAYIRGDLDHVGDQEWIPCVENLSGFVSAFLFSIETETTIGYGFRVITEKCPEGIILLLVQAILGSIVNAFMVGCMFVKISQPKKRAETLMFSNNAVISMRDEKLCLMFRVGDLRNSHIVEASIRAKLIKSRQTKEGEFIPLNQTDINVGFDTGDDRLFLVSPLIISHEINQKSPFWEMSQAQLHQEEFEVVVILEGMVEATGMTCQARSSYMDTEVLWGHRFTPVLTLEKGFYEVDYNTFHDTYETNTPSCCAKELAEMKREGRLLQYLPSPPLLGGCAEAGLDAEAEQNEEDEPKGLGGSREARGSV
Assay: GIRK1/4 Activity Assay
Protocol: The GIRK1/4 activity of a compound according to the present invention was assessed by the following in vitro method.Buffers:a. External buffer: 10 mM NaCl, 50 mM Na Gluconate, 80 mM K Gluconate, 1.8 mM CaCl2, 1 mM MgCl2, 10 mM HEPES, 10 mM Glucose, pH 7.4; osmolarity 300-310 […].b. Internal buffer: 30 mM KCl, 100 mM K Gluconate, 1 mM MgCl2, 10 mM HEPES, 1 mM EGTA, 10 mM NaCl, pH 7.2; osmolarity […].Compounds:c. Prepare seven-fold compound dilution series (10 mM to 20 uM) in 100% DMSO, in 384-well polypropylene plates.d. Propafenone (Sigma Aldrich, catalog number P4670) was used as a positive control and DMSO for neutral controle. Resuspend 1 μl of compounds in DMSO into 66.7 μl external buffer in 384-well polypropylene plate and load into Plate 1 section of Molecular Devices Quattro Quattro Setup:f. Load 384-well Population Patch Plate (Molecular Devices #9000-0902) into Quattrog. Fill Quattro F-soak trough with 20% DMSO and 50% EtOHh. Fill Quattro buffer trough with external bufferi. Attach internal buffer flask to Quattro internal buffer tubingj. Attach PBS (Phosphate Buffered Saline, minus Ca++ and Mg++, pH7.4) bottle to F-head & E-head wash on QuattroAntibiotic:k. […] Measured magnitude of inward potassium current at time point between 1200-1220 ms from start of Pulse 1 (i.e., during the voltage ramp phase).t. […]

- IC50: 30 nM
Compound: Cc1cc(=O)c2c(OCCC(N)=O)ncc(Cl)c2n1-c1c(Cl)cc(OCCO)cc1Cl [US12084442, Example 18]
